molecular target: T1, GPR40 of human origin (Homo sapiens, UniProt O14842); assay: Agonist action on GPR40 of human origin (Ca2+ fluctuation in a CHO cell strain stably expressing GPR40); assay type: cell-based; details: Calcium 4 Assay Kit, fluorescence intensity variation
T1 construct: expressed in transfected cells
Method: A CHO cell strain stably expressing GPR40 of human origin was used to determine the agonist action of a title compound. This cell strain was seeded in a clear bottom 96 well plate at 2×10^4 cells/100 μL/well. The cell strain was cultured in a CO2 incubator overnight using a Ham's F-12 medium containing a 10% fetal bovine serum, 100 U/mL penicillin, 0.1 mg/mL streptomycin, and 400 μg/mL Geneticin. Calcium 4 Assay Kit (Molecular Devices) was used as a fluorescent calcium indicator. One mL of 77 mg/mL probenecid (Invitrogen) was added to 100 mL of a calcium indicator solution to prepare a solution (loading solution) mixed with a 20 mM HEPES-containing Hanks' balanced salt solution (HBSS) in equal proportions. To the cells from which the culture solution was removed, 200 μL of the loading solution was added, and the cells were cultured in a CO2 incubator for 1 hour. The title compound was diluted with a 20 mM HEPES-containing HBSS and was added to the cells by 50 μL, and the fluctuation of the Ca^2+ concentration was measured by an intracellular ion analyzer. The EC50 value of the title compound was calculated using the dose-response curve of fluorescence intensity variation.

T1 sequence (O14842 whole entry): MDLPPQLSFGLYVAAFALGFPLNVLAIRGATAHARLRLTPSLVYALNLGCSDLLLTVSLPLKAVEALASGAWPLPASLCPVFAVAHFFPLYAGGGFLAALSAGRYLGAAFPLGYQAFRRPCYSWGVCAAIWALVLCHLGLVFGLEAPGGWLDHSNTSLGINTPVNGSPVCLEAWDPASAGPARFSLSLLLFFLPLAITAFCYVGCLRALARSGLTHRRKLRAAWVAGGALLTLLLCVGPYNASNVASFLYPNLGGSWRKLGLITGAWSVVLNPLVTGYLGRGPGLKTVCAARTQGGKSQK

Row | Structure (SMILES) | EC50 [nM]
1 | Cc1nc(OCCC(C)(C)O)ccc1Oc1cccc2c1CC[C@H]2Oc1ccc(C2CC(O)=N[S+]2[O-])cc1 (single isomer, unassigned) [51(A)-a] | < 300
2 | O=C1CC(c2ccc(O[C@@H]3CCc4c(-c5ccccc5C(F)(F)F)cccc43)cc2)CS(=O)(=O)N1 (stereo partly drawn) [Example 44, 5-(4-(((R)-4-(2-(trifluoromethyl)phenyl)-2,3-dihydro-1H-inden-1-yl)oxy)phenyl)-1,2-thiazinan-3-one 1,1-dioxide] | < 300
3 | Cc1cc(OCCCS(C)(=O)=O)cc(C)c1-c1cccc2c1CC[C@H]2Oc1ccc(C2CC(=O)NS(=O)(=O)C2)cc1 (stereo partly drawn) [Example 45, 5-(4-(((R)-4-(2,6-dimethyl-4-(3-(methylsulfonyl)propoxy)phenyl)-2,3-dihydro-1H-inden-1-yl)oxy)phenyl)-1,2-thiazinan-3-one 1,1-dioxide] | < 300
4 | [O-][S+]1N=C(O)CC1c1ccc(O[C@@H]2CCc3c(-c4cccnc4C(F)(F)F)cccc32)cc1 (single isomer, unassigned) [Example 65] | < 300
5 | O=C1CC(c2ccc(O[C@@H]3CCc4c(Oc5ccccc5)cccc43)cc2)CS(=O)(=O)N1 (stereo partly drawn) [Example 49, 5-(4-(((R)-4-phenoxy-2,3-dihydro-1H-inden-1-yl)oxy)phenyl)-1,2-thiazinan-3-one 1,1-dioxide (C)] | < 300
6 | COc1cc(C)c(-c2cccc3c2CC[C@H]3Oc2ccc(C3CC(=O)NS(=O)(=O)C3)cc2)c(C)c1 (stereo partly drawn) [Example 46, 5-(4-(((R)-4-(4-methoxy-2,6-dimethylphenyl)-2,3-dihydro-1H-inden-1-yl)oxy)phenyl)-1,2-thiazinan-3-one 1,1-dioxide] | < 300
7 | O=C1CC(c2ccc(O[C@@H]3CCc4c(Oc5ccccc5)cccc43)cc2)CS(=O)(=O)N1 (stereo partly drawn) [Example 48, 5-(4-(((R)-4-phenoxy-2,3-dihydro-1H-inden-1-yl)oxy)phenyl)-1,2-thiazinan-3-one 1,1-dioxide] | < 300
8 | CCOCCOc1ccc(-c2cccc3c2CC[C@H]3Oc2ccc(C3CC(O)=N[S+]3[O-])cc2)c(C)n1 (single isomer, unassigned) [54(A)-b] | < 300
9 | COc1ccc(Oc2cccc3c2CC[C@H]3Oc2ccc(C3CC(O)=N[S+]3[O-])cc2)cn1 (single isomer, unassigned) [52(A)-b] | < 300
10 | Cc1cc(O[C@@H]2CCc3c(-c4c(C)cc(OCCC(C)(C)O)cc4C)cccc32)ccc1C1CC(=O)NS(=O)(=O)C1 (stereo partly drawn) [Example 47, 5-(4-(((R)-4-(4-(3-hydroxy-3-methylbutoxy)-2,6-dimethylphenyl)-2,3-dihydro-1H-inden-1-yl)oxy)-2-methylphenyl)-1,2-thiazinan-3-one 1,1-dioxide] | < 300
11 | CCOCCOc1cc(C)c(-c2cccc3c2CC[C@H]3Oc2ccc(C3CC(O)=N[S+]3[O-])cc2)c(C)c1 (single isomer, unassigned) [Example 57] | < 300
12 | COc1ccc(Oc2cccc3c2CC[C@H]3Oc2ccc(C3CC(O)=N[S+]3[O-])cc2)cn1 (single isomer, unassigned) [52(A)-a] | < 300
13 | Cc1nc(OCCC(C)(C)O)ccc1-c1cccc2c1CC[C@H]2Oc1ccc(C2CC(=O)NS(=O)(=O)C2)cc1 (stereo partly drawn) [Example 36, 5-(4-(((R)-4-(6-(3-hydroxy-3-methylbutoxy)-2-methylpyridin-3-yl)-2,3-dihydro-1H-inden-1-yl)oxy)phenyl)-1,2-thiazinan-3-one 1,1-dioxide] | < 300
14 | Cc1ncccc1Oc1cccc2c1CC[C@H]2Oc1ccc(C2CC(O)=N[S+]2[O-])cc1 (single isomer, unassigned) [55(A)-a] | < 300
15 | Cc1nc(OCCC(C)(C)O)ccc1Oc1cccc2c1CC[C@H]2Oc1ccc(C2CC(O)=N[S+]2[O-])cc1 (single isomer, unassigned) [51(A)-b] | < 300
16 | Cc1cccc(Oc2cccc3c2CC[C@H]3Oc2ccc(C3CC(O)=N[S+]3[O-])cc2)c1 (single isomer, unassigned) [53(A)-a] | < 300
17 | COc1ccc(-c2cccc3c2CC[C@H]3Oc2ccc(C3CC(O)=N[S+]3[O-])cc2)c(C)n1 (single isomer, unassigned) [Example 63] | < 300
18 | Cc1cccc(C)c1-c1cccc2c1CC[C@H]2Oc1ccc(C2CC(=O)NS(=O)(=O)C2)cc1 (stereo partly drawn) [Example 37, 5-(4-(((R)-4-(2,6-dimethylphenyl)-2,3-dihydro-1H-inden-1-yl)oxy)phenyl)-1,2-thiazinan-3-one 1,1-dioxide] | < 300
19 | Cc1cccc(C)c1-c1cccc2c1CC[C@H]2Oc1ccc(C2CC(O)=N[S+]2[O-])cc1 (single isomer, unassigned) [Example 60] | < 300

Row | Structure (SMILES) | EC50 [nM]
20 | CCOCCOc1cc(C)c(-c2cccc3c2CC[C@H]3Oc2ccc(C3CC(=O)NS(=O)(=O)C3)cc2)c(C)c1 (stereo partly drawn) [Example 39, 5-(4-(((R)-4-(4-(2-ethoxyethoxy)-2,6-dimethylphenyl)-2,3-dihydro-1H-inden-1-yl)oxy)phenyl)-1,2-thiazinan-3-one 1,1-dioxide] | < 300
21 | CCOCCOc1cc(C)c(-c2cccc3c2CC[C@H]3Oc2ccc(C3CC(O)=N[S+]3[O-])cc2)c(C)c1 (single isomer, unassigned) [Example 58] | < 300
22 | Cc1cc(OCCCS(C)(=O)=O)cc(C)c1-c1cccc2c1CC[C@H]2Oc1ccc(C2CC(=O)N[S+]2[O-])cc1 (single isomer, unassigned) [Example 59] | < 300
23 | COc1cc(C)c(-c2cccc3c2CC[C@H]3Oc2ccc(C3CC(O)=N[S+]3[O-])cc2)c(C)c1 (single isomer, unassigned) [Example 61] | < 300
24 | Cc1nc(OCCCS(C)(=O)=O)ccc1-c1cccc2c1CC[C@H]2Oc1ccc(C2CC(O)=N[S+]2[O-])cc1 (single isomer, unassigned) [Example 62] | < 300
25 | COc1cccc(F)c1-c1cccc2c1CC[C@H]2Oc1ccc(C2CC(O)=N[S+]2[O-])cc1 (single isomer, unassigned) [Example 68] | < 300
26 | CCOCCOc1cc(C)c(-c2cccc3c2CC[C@H]3Oc2ccc(C3CC(=O)NS(=O)(=O)C3)cc2)c(C)c1 (stereo partly drawn) [Example 42, 5-(4-(((R)-4-(4-(2-ethoxyethoxy)-2,6-dimethylphenyl)-2,3-dihydro-1H-inden-1-yl)oxy)phenyl)-1,2-thiazinan-3-one 1,1-dioxide] | < 300
27 | Cc1cccc(C)c1-c1cccc2c1CC[C@H]2Oc1ccc(C2CC(=O)NS(=O)(=O)C2)cc1 (stereo partly drawn) [Example 43, 5-(4-(((R)-4-(2,6-dimethylphenyl)-2,3-dihydro-1H-inden-1-yl)oxy)phenyl)-1,2-thiazinan-3-one 1,1-dioxide] | < 300
28 | Cc1ccc(F)cc1-c1cccc2c1CC[C@H]2Oc1ccc(C2CC(O)=N[S+]2[O-])cc1 (single isomer, unassigned) [Example 67] | < 300
29 | CCOc1ccc(F)cc1-c1cccc2c1CC[C@H]2Oc1ccc(C2CC(O)=N[S+]2[O-])cc1 (single isomer, unassigned) [Example 69] | < 300
30 | Cc1cccc(Oc2cccc3c2CC[C@H]3Oc2ccc(C3CC(O)=N[S+]3[O-])cc2)c1 (single isomer, unassigned) [53(A)-b] | < 300
31 | CCOCCOc1ccc(-c2cccc3c2CC[C@H]3Oc2ccc(C3CC(O)=N[S+]3[O-])cc2)c(C)n1 (single isomer, unassigned) [54(A)-a] | < 300
32 | Cc1ccccc1-c1cccc2c1CC[C@H]2Oc1ccc(C2CC(O)=N[S+]2[O-])cc1 (single isomer, unassigned) [Example 66] | < 300
33 | O=C1CC(c2ccc(O[C@@H]3CCc4c(-c5ccccc5C(F)(F)F)cccc43)cc2)CS(=O)(=O)N1 (stereo partly drawn) [Example 38, 5-(4-(((R)-4-(2-(trifluoromethyl)phenyl)-2,3-dihydro-1H-inden-1-yl)oxy)phenyl)-1,2-thiazinan-3-one 1,1-dioxide] | < 300
34 | N#Cc1ccc(Oc2cccc3c2CC[C@H]3Oc2ccc(C3CC(=O)N[S+]3[O-])cc2)cc1 (single isomer, unassigned) [25(A)-b] | < 300
35 | Cc1nc(OCCC(C)(C)O)ccc1-c1cccc2c1CC[C@H]2Oc1ccc(C2CC(=O)N[S+]2[O-])cc1 (single isomer, unassigned) [23(A)-a] | < 300
36 | Cc1ncccc1Oc1cccc2c1CC[C@H]2Oc1ccc(C2CC(O)=N[S+]2[O-])cc1 (single isomer, unassigned) [55(A)-b] | < 300
37 | [O-][S+]1N=C(O)CC1c1ccc(O[C@@H]2CCc3c(-c4ccccc4C(F)(F)F)cccc32)cc1 (single isomer, unassigned) [Example 64] | < 300
